Data on four molecules can be found in ChEMBL document CHEMBL1141639, “Synthesis and heme-binding correlation with antimalarial activity of 3,6-bis-(omega-N,N-diethylaminoamyloxy)-4,5-difluoroxanthone” (Bioorg Med Chem, 2008).

Molecules are shown by their SMILES. pIC50: −log10 of the molar value.

Assay [1] can be described thus: Binding affinity to heme in aqueous solution.
The subject of assay [2] is Plasmodium falciparum. In words: Antimalarial activity against Plasmodium falciparum D6 in MSF assay. Format: functional, organism-based.
Assay [3] deals with Plasmodium falciparum. Briefly: Antimalarial activity against Plasmodium falciparum W2 in MSF assay. Format: functional, organism-based.

Regarding `C=CC1CN2CC[C@H]1C[C@H]2[C@H](O)c1ccnc2ccc(OC)cc12` (single isomer, unassigned) [QUININE], in assay [1], the Ka is 0.2 10^5/M. Further, the results for the negative logarithm of the IC50 (pIC50) in assay [2] and in assay [3] were 7.96 and 7.22, respectively.

`CCN(CC)CCCCCOc1ccc2c(=O)c3ccc(OCCCCCN(CC)CC)c(F)c3oc2c1F`: the Ka in assay [1] was 0.6 10^5/M. Also, the negative-log IC50 (pIC50) – broadly, −log10 of the IC50, conventionally taken in molar units – in assay [2] is 7.03; in assay [3], 6.82.

Consider `O[C@@H](c1cc(C(F)(F)F)nc2c(C(F)(F)F)cccc12)[C@H]1CCCCN1` [MEFLOQUINE], for which the Ka in assay [1] is 0.1 10^5/M. Moreover, the pIC50 was 8.23 in assay [2] and 9.15 in assay [3].

Consider `CCN(CC)CCCCCOc1ccc2c(=O)c3ccc(OCCCCCN(CC)CC)cc3oc2c1`, for which the Ka in assay [1] was 8.2 10^5/M. The negative-log IC50 (pIC50) was 6.74 in assay [2] and 6.92 in assay [3].
